US9057106B2, “Method of determination of diagnosis and prognosis in patients with B-cell chronic lymphocytic leukemia and oligonucleotides for use in this method” (MASARYKOVA UNIVERZITA, priority 2009, dated 2015)
“Also recorded” adds a separate entry of the source.

System: CLL cells
Experiment: Transwell migration assay of CLL cells in chemokine gradient
Type: cell-based, human
Source text: 2006 Nov. 1; 108(9):3143-51; Richardson S J, Matthews C, Catherwood M A, Alexander H D, Carey B S, Farrugia J, Gardiner A, Mould S, Oscier D, Copplestone J A, Prentice A G: ZAP-70 expression is associated with enhanced ability to respond to migratory and survival signals in B-cell chronic lymphocytic leukemia (CLL). Blood. 2006 May 1; 107(9):3584-92). […] CK1ε is the key component of the Wnt/PCP pathway and its quantity in the patients suffering from CLL is increased. As we show in FIG. 5B, the inhibition of CK1ε blocks the effects of Wnt5a on cell migration in the chemokine gradient. […] The extent of the migration of CLL cells in chemokine gradient after Wnt5a stimulation may be determined by the following procedure and used for the determination of the migration capacity of CLL cells that correlates closely with the infiltration of lymphatic organs and the agressiveness of the disease (Till K J, Lin K, Zuzel M., Cawley J C. The chemokine receptor CCR7 and a4 integrin are important for migration of chronic lymphocytic leukemia cells into lymph nodes. Blood. 2002 99: 2977-2984).
CLL cells were isolated by the identical procedure as in Example 6. After isolation the cells were transferred to tissue culture and subjected to Transwell assay. 96 well plates were used for the experiments (Corning, HTS Transwell®-96 Permeable Support with 5.0 μm Pore Polycarbonate Membrane). These plates consist of a bottom part including the wells and a top part that includes the inserts, the bottom of which is formed by the membrane of a defined size of pores. Each sample was measured in triplicate. The wells in the bottom part of the plate always included 0.235 ml of the medium (RPMI 1640, 0.1% FBS, 1% Penicillin Streptomycin, 1% L-glutamine) and further the required concentration of the chemokine or solvent (0.1% BSA in PBS). […] After the cultivation the inserts were removed from the transwell plate, trypsin was added to each well (100 μl) and after 5 minutes of its activity the number of the cells that migrated through the membrane were counted in each well. […]

CXCL12: chemokine CXCL12
migration of CLL cells (substance itself (alone), 20 hours, recombinant Wnt5a 200 ng/ml): influences positively the migration of CLL cells

NC(=O)c1ccc(-c2nc(-c3ccc4c(c3)OCCO4)c(-c3ccccn3)[nH]2)cc1 [D4476, reference compound]
effect of CK1 inhibition on Wnt5a-induced migration of CLL cells in the chemokine gradient (CK1 inhibitor D4476 100 uM, with Wnt5a and chemokine): blocks migration

B1: Wnt5a: recombinant Wnt5a, secreted ligand of the Wnt/PCP pathway (protein, UniProt P41221 62-380, looked up)
Protein Wnt-5a: IIGAQPLCSQLAGLSQGQKKLCHLYQDHMQYIGEGAKTGIKECQYQFRHRRWNCSTVDNTSVFGRVMQIGSRETAFTYAVSAAGVVNAMSRACREGELSTCGCSRAARPKDLPRDWLWGGCGDNIDYGYRFAKEFVDARERERIHAKGSYESARILMNLHNNEAGRRTVYNLADVACKCHGVSGSCSLKTCWLQLADFRKVGDALKEKYDSAAAMRLNSRGKLVQVNSRFNSPTTQDLVYIDPSPDYCVRNESTGSLGTQGRLCNKTSEGMDGCELMCCGRGYDQFKTVQTERCHCKFHWCCYVKCKKCTEIVDQFVCK
migration of CLL cells in the presence of the chemokine CXCL12 (combination of CXCL12 and recombinant Wnt5a (200 ng/ml), 20 hours): positively affect the migration of CLL cells; also recorded: significantly increased the migration of CLL
